We go through four compounds from ChEMBL document CHEMBL3046246, “Synthesis of spirothiohydantoin analogues of hydantocidin” (1995).

Common to all, as to type: functional
What all share (details): 240 h, read-out: GI

The test system of one test is Echinochloa crus-galli. The test can be described thus: Herbicidal activity against three-leaf stage Echinochloa crus-galli (barnyard grass) assessed as plant growth inhibition at 1000 ppm applied through foliar spraying measured after 10 days post compound treatment relative to untreated control.
The next test relates to Panicum dichotomiflorum. Nature of the test: Herbicidal activity against three-leaf stage Panicum dichotomiflorum assessed as plant growth inhibition at 1000 ppm applied through foliar spraying measured after 10 days post compound treatment relative to untreated control.
Another test has as its system Digitaria sanguinalis. The test can be described thus: Herbicidal activity against three-leaf stage Digitaria sanguinalis (hairy crabgrass) assessed as plant growth inhibition at 1000 ppm applied through foliar spraying measured after 10 days post compound treatment relative to untreated control.
Another test relates to Setaria viridis. The test can be described thus: Herbicidal activity against three-leaf stage Setaria viridis (green foxtail) assessed as plant growth inhibition at 1000 ppm applied through foliar spraying measured after 10 days post compound treatment relative to untreated control.
The test system of another test is Sorghum halepense. The test can be described thus: Herbicidal activity against three-leaf stage Sorghum halepense (Johnson grass) assessed as plant growth inhibition at 1000 ppm applied through foliar spraying measured after 10 days post compound treatment relative to untreated control.
For the next test, the system named is Ipomoea purpurea. The test can be described thus: Herbicidal activity against 3-leaf stage tall Ipomoea purpurea (common morning-glory) assessed as plant growth inhibition at 1000 ppm applied through foliar spraying measured after 10 days post compound treatment relative to untreated control.
The test system of another test is Xanthium strumarium. The test can be described thus: Herbicidal activity against three-leaf stage Xanthium strumarium (cocklebur) assessed as plant growth inhibition at 1000 ppm applied through foliar spraying measured after 10 days post compound treatment relative to untreated control.
The next test relates to Solanum nigrum. Nature of the test: Herbicidal activity against three-leaf stage Solanum nigrum (black nightshade) assessed as plant growth inhibition at 1000 ppm applied through foliar spraying measured after 10 days post compound treatment relative to untreated control.
In a further test the test system is Abutilon theophrasti. The test can be described thus: Herbicidal activity against three-leaf stage Abutilon theophrasti (velvetleaf) assessed as plant growth inhibition at 1000 ppm applied through foliar spraying measured after 10 days post compound treatment relative to untreated control.
The test system of the next test is Ambrosia artemisiifolia. Nature of the test: Herbicidal activity against three-leaf stage Ambrosia artemisiifolia (ragweed) assessed as plant growth inhibition at 1000 ppm applied through foliar spraying measured after 10 days post compound treatment relative to untreated control.

Regarding `O=C1NC(=O)[C@]2(N1)O[C@H](CO)[C@@H](O)[C@H]2O` [HYDANTOCIDIN], the inhibition of growth at 1000 ppm in the test on Echinochloa crus-galli was found to be 10%; in the test with Panicum dichotomiflorum, 80%; in the test on Digitaria sanguinalis, 80%; in the test with Setaria viridis, 80%; with Sorghum halepense, 0%; in the test with Ipomoea purpurea it was 30%. For the same compound, the inhibition of growth at 1000 ppm is 80% in the test on Xanthium strumarium, 50% in the test on Solanum nigrum and 80% in the test on Abutilon theophrasti.
Take `O=C1NC(=O)[C@@]2(N1)O[C@H](CO)[C@@H](O)[C@H]2O` [HYDANTOCIDIN]: the inhibition of growth at 1000 ppm in the test on Echinochloa crus-galli, in the test on Panicum dichotomiflorum, with Digitaria sanguinalis, in the test with Setaria viridis, in the test on Sorghum halepense and with Ambrosia artemisiifolia was 95% throughout. For the same compound, the inhibition of growth at 1000 ppm in the test with Ipomoea purpurea, in the test with Xanthium strumarium, in the test on Solanum nigrum and in the test on Abutilon theophrasti was 95% each time.
`O=C1NC(=S)N[C@]12O[C@H](CO)[C@@H](O)[C@H]2O`: the inhibition of growth at 1000 ppm in the test with Echinochloa crus-galli came out at 95%; in the test on Panicum dichotomiflorum, 80%; with Digitaria sanguinalis, 95%; in the test with Setaria viridis it was 95%; in the test with Sorghum halepense it was 95%; in the test on Ambrosia artemisiifolia, 80%. Further, the inhibition of growth at 1000 ppm with Ipomoea purpurea is 80%; in the test with Xanthium strumarium it was 95%; in the test on Solanum nigrum, 80%; in the test with Abutilon theophrasti it was 80%.
As to `O=C1NC(=S)N[C@@]12O[C@H](CO)[C@@H](O)[C@H]2O`, the inhibition of growth at 1000 ppm is 95% in the test on Echinochloa crus-galli; 80% with Panicum dichotomiflorum; 95% with Digitaria sanguinalis; 95% in the test with Setaria viridis; 95% in the test on Sorghum halepense; 95% in the test with Ambrosia artemisiifolia. Moreover, the inhibition of growth at 1000 ppm in the test on Ipomoea purpurea, with Xanthium strumarium, in the test on Solanum nigrum and in the test with Abutilon theophrasti was 95% in each case.
